We go through two compounds from patent US8273787B2, “Activated cytotoxic compounds for attachment to targeting molecules for the treatment of mammalian disease conditions” (Onconova Therapeutics, Inc, priority 2006, dated 2012).

For orientation: IC50 means the midpoint of a concentration-inhibition curve.

One test concerns CEM. In words: 96 hour growth inhibition, CEM. Type of test: cell-based. Conditions: Homo sapiens, CCRF-CEM; CEM (PARENTAL). How it is done:
(§1) Two compounds were selected from our library of cytotoxic molecules for immunoconjugation since they both have IC50 values in the low nanomolar range. Various tumor cell lines (ATCC) were treated for 96 hours in the presence of increasing concentrations of each compound and the total number of viable cells remaining was determined after 96 hours of exposure. The IC50 value was determined to be the amount of drug required to inhibit the growth of each cell line 50% as compared to vehicle treated cells.
(§2) Another extremely important predictive factor is the ability of these compounds to kill cell lines overexpressing multiple drug resistance (MDR) genes. A very high percentage of cancer patient relapses are due to some form of resistance to traditional chemotherapy. Of these patients, the vast majority express one or more of the MDR genes within the ABC transport gene family. Overexpression of these genes increases the efflux of compounds that are recognized by these pumping systems. […] Onconova's benzyl styryl sulfone compounds are not recognized by the MDR-1 gene and therefore provide an advantage over other highly toxic drugs including but not limited to the taxanes, doxorubicin, etoposide, and vinca-alkaloids. […] MES-SA/Dx5, uterine sarcoma, and […], ovarian, are both classical multidrug resistant cell lines that are cross resistant to the taxanes and anthracyclins. Harker, W G, and Sikic, B. I., Multidrug (Pleiotropic) Resistance In Doxorubicin-Selected Variants Of The Human Sarcoma Cell Line MES-SA, Cancer Res. 45(9):4091-6 (1985). MES-SA/Dx5 and Apr. […] Fujimori, A., et al., Mutation At The Catalytic Site Of Topoisomerase I In CEM/C2, A Human Leukemia Cell Line Resistant To Camptothecin, Cancer Res. 55(6): 1339-46 (1995). ON 01500 and ON 013100, for example, are both extremely active against these resistant cell lines.

For the next test, the system named is CEM/C2 (RESISTANT). Briefly: growth inhibition, CEM/C2 (resistant). It counts as cell-based, Human. How it is done: as §1, §2
The next test relates to MES-SA/Dx5 (RESISTANT). In words: growth inhibition, MES-SA/Dx5 (resistant). Type of test: cell-based, Human. How it is done: as §1, §2
A further test has as its system MES-SA (PARENTAL). Briefly: growth inhibition, MES-SA (parental). Type of test: cell-based. Conditions: Homo sapiens, uterine sarcoma. How it is done:
as §1, §2

For a further test, the system named is 2008/17/4 (RESISTANT). In words: growth inhibition, 2008/17/4 (resistant). It counts as cell-based. How it is done: as §1, §2
A further test relates to 2008 (PARENTAL). In words: growth inhibition, 2008 (parental). It counts as cell-based. Particulars: ovarian. Here is the method: as §1, §2

Take `CC[C@@]1(O)C(=O)OCc2c1cc1n(c2=O)Cc2cc3ccccc3nc2-1` [CAMPTOTHECIN, reference compound]: the IC50 is 2 nM with CEM and 1000 nM with CEM/C2 (RESISTANT) (Homo sapiens, CEM/C2 (RESISTANT), non classical multiple drug resistant). Further, in the test on CEM/C2 (RESISTANT) (CEM/C2 (RESISTANT) versus CEM (PARENTAL)), the RSIST-ANCE was determined as 500.
In the case of `CC(=O)O[C@H]1C(=O)[C@@]2(C)[C@H]([C@H](OC(=O)c3ccccc3)[C@]3(O)C[C@H](OC(=O)[C@H](O)[C@@H](NC(=O)c4ccccc4)c4ccccc4)C(C)=C1C3(C)C)[C@]1(OC(C)=O)CO[C@@H]1C[C@@H]2O` [PACLITAXEL, reference compound], the IC50 came out at 750 nM with MES-SA/Dx5 (RESISTANT) (Homo sapiens, MES-SA/Dx5 (RESISTANT), uterine sarcoma, multidrug resistant); 4 nM with MES-SA (PARENTAL); 2000 nM in the test with 2008/17/4 (RESISTANT) (2008/17/4 (RESISTANT), ovarian, multidrug resistant); 3 nM in the test on 2008 (PARENTAL). Further, the figures for the RSIST-ANCE with MES-SA/Dx5 (RESISTANT) (MES-SA/Dx5 (RESISTANT) versus MES-SA (PARENTAL)) and in the test on 2008/17/4 (RESISTANT) (2008/17/4 (RESISTANT) versus 2008 (PARENTAL)) were 188 and 667, respectively. Moreover, the fold resistant was 188 fold in the test with MES-SA/Dx5 (RESISTANT) (MES-SA/Dx5 versus parental) and 667 fold in the test on 2008/17/4 (RESISTANT) (2008/17/4 (printed Apr. 17, 2008) versus parental).
